Measurements published in patent US20260200926A1, “TREM2 MODULATORS” (Muna Therapeutics ApS, priority 2022, published 2026).
Where two headings read alike, the source gives them in different places.

Target: T1, Human TREM2 (Homo sapiens, UniProt Q9NZC2)
T1 construct: expressed in transfected cells
Assay: Human TREM2 activity: cellular phosphorylation of Syk (AlphaLISA SureFire Ultra p-SYK) in HEK293/DAP12+TREM2 stable cell line
Format: cell-based
Details: for EC50: phospho-Syk AlphaLISA signal, HEK293/DAP12+TREM2 cells, concentration giving 50% of maximal response, read-out: EC50
Text: Human TREM2, in vitro Measurement of Triggering Receptor Expressed on Myeloid Cells 2 activity using cellular phosphorylation of Spleen Tyrosine Kinase (“Syk”) Assay
HEK-293 cells were co-transfected with separate plasmids encoding TREM2 and DAP12 to generate a stable cell line. After antibiotic selection, functional clone pool analysis and two successive limiting dilutions, the final clone “HEK293/DAP12+TREM2” underwent a qPCR analysis and a pharmacological validation.
TREM2 signaling through DAP12 was monitored in the HEK293/DAP12+TREM2 stable cell line by measuring the phosphorylation levels of the Syk kinase using the commercially available AlphaLISA SureFire Ultra p-SYK (Tyr525/526) Assay Kit (PerkinElmer #ALSU-PSYK), based on the Perkin Elmer AlphaScreen/AlphaLISA technology.
Compounds are transferred to the test plate and tested in full dose response, 8 concentrations in quadruplicate data points. Compound serial dilutions were performed at Cybi-Felix instrument in 100% DMSO and the dose response curves were assembled in automated fashion in 384MPT at Hamilton STARlet instrument. All the stock solutions were prepared at 20 mM in 100% DMSO. For compounds testing, the starting concentration was 100 μM, dilution steps 1:6. […] Finally, a 384MPT reformatted for all compounds at 8 concentrations, quadruplicates, was used as “mother to child” process with a CyBi®-Well dispenser in which 1 μL of each compound was moved into a destination plate pre-filled with 65.6 μL of EMEM cell culture medium (BIOWHITTAKER_cat.BE12-125F), thus obtaining 3× concentrated compounds working solution. In columns 1-2 and 23-24 the control wells were added. In particular, dose response curves of a reference control agonist were included in column 1 and 24 as reference control agonist (Reference control agonists used include Human TREM2 polyclonal Antibody AF1828: R&D Systems; Human TREM2 monoclonal Antibody MAB1828: R&D Systems). The dose response curves were tested starting at 30 μM, dilution step 1:6. Both “source” compound plate and “destination” compound plate were barcoded and a relationship between the two plates was thus generated.
HEK293/DAP12+TREM2 cells were cultured in EMEM medium supplemented with IX Penicillin/Streptomycin (BIOWHITTAKER_cat.DE17-602E), ULTRAGLUTAMINE I 200 mM, 10% Fetal Bovine Serum plus antibiotics referred to as “HEK293 Culture Medium”. The day before the experiment, cells were detached by gentle wash with DPBS, followed by 5 min incubation at 37° C. with Trypsin solution. Cells were then diluted in HEK293 Culture Medium without antibiotics, counted and seeded into 384-well poly-D-Lysine coated microplates black/clear bottom (GREINER 781946) at a density of 10,000 cells/well in 25 μL/well by the use of a MATRIX WellMate dispenser. Plates were placed into a humidified cell culture incubator at 37° C. with 5% CO2 until the experimental day. 20-24 hours after seeding mature medium was removed and replaced with 10 μL/well of EMEM cell medium supplemented with 0.1% Pluronic F-68 non-ionic surfactant (Thermofisher, 24040032), referred to as “Assay Buffer”, using the CyBi®-Well instrument. Then 5 μL/well of Assay Buffer containing 3× concentrated test compounds or the reference control agonist (in 0.5% final DMSO concentration) were added to the cells with the CyBi®-Well instrument. Cell plates were incubated for 30 min into a humidified cell culture incubator at 37° C. with 5% CO2·, then the medium was removed by manually discard. 20 μL/well of lysis buffer were dispensed using the CyBi®-Well instrument and plates were incubated for 10 min at room temperature on a plate shaker (350 rpm). Then, 10 μL/well of lysate were transferred to the Alpha plates. The CyBi®-Well instrument was used to dispense 5 μL/well of AlphaLISA Acceptor Bead Solution in IX Immunoassay buffer (Perkin Elmer AL000F). Then the plates were sealed with Heat sealing foil, shaked for 2 minutes (350 rpm) and incubated for 1 hour at room temperature.

[1] = HEK293, maximal response relative to reference agonist example 1B (remaining examples), read-out: Emax
[2] = HEK293, maximal response relative to reference agonist human TREM2 MAB1828 (examples 1, 1A and 1B), read-out: Emax

T1 sequence (Q9NZC2 19-230): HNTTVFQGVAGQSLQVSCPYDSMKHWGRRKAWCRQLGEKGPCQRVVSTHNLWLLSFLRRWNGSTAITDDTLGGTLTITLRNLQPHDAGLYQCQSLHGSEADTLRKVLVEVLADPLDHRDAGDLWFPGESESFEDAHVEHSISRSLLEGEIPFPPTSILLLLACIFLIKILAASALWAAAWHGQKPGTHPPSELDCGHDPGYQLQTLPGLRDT
T1 sequence (O43914 22-113 partner): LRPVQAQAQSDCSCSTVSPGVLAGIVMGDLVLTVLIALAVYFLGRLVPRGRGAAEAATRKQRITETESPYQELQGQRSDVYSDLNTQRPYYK

Compound	Emax (maximal response relative to reference agonist example 1B (remaining examples))	EC50 [nM]	Emax [1] [%]	Emax [2] [%]
Cc1nc2c(-c3ccc(C(F)(F)F)nc3)nc(N3CCOC(c4cnn(C5CC5)c4)C3)nc2c(=O)n1C (racemic) [Example 19, 6-(2-(1-cyclopropyl-1H-pyrazol-4-yl)morpholino)-2,3-dimethyl-8-(6-(trifluoromethyl)pyridin-3-yl)pyrimido[5,4-d]pyrimidin-4 (3H)-one]		10 to 100	< 75	
Cc1nc2c(-c3ccc(Cl)cc3F)nc(N3CCO[C@H](c4cnn(C)c4)C3)nc2c(=O)n1C (single isomer, unassigned) [Example 1A]		100 to 1000		75 to 110
Cc1nc2c(-c3ccc(C(F)(F)F)cc3F)nc(N3CCO[C@H](c4cnn(C5CC5)c4)C3)nc2c(=O)n1C (single isomer, unassigned) [Example 20A]		10 to 100	75 to 110	
Cc1nc2c(-c3ccc(C(F)(F)F)cc3F)nc(N3CCO[C@@H](c4cnn(C5CC5)c4)C3)nc2c(=O)n1C (single isomer, unassigned) [Example 20B]		1 to 10	75 to 110	
Cc1cc([C@H]2CN(c3nc(-c4ccc(C(F)(F)F)cc4F)c4nc(C)n(C)c(=O)c4n3)CCO2)ccn1 (single isomer, unassigned) [Example 21B]		< 1	75 to 110	
Cc1cc([C@H]2CN(c3nc(-c4ccc(C(F)(F)F)nc4)c4nc(C)n(C)c(=O)c4n3)CCO2)ccn1 (single isomer, unassigned) [Example 22B]		1 to 10	75 to 110	
Cc1cc([C@@H]2CN(c3nc(-c4ccc(Cl)cc4F)c4nc(C)n(C)c(=O)c4n3)CCO2)ccn1 (single isomer, unassigned) [Example 23A]		10 to 100	< 75	
Cc1cc([C@H]2CN(c3nc(-c4ccc(Cl)cc4F)c4nc(C)n(C)c(=O)c4n3)CCO2)ccn1 (single isomer, unassigned) [Example 23B]		1 to 10	75 to 110	
Cc1nc2c(-c3ccc(Cl)cc3F)nc([C@@H]3CCO[C@H](c4cnn(C5CC5)c4)C3)nc2c(=O)n1C (single isomer, unassigned) [Example 24A]		1 to 10	75 to 110	
Cc1nc2c(-c3ccc(Cl)cc3F)nc([C@H]3CCO[C@@H](c4cnn(C5CC5)c4)C3)nc2c(=O)n1C (single isomer, unassigned) [Example 24B]		100 to 1000	< 75	
Cc1nc2c(-c3ccc(C(F)(F)F)cc3F)nc(N3CCO[C@@H](c4cnn(C)c4)C3)nc2c(=O)n1C (single isomer, unassigned) [Example 25B]		10 to 100	< 75	
Cc1nc2c(-c3ccc(Cl)cc3F)nc(N3CCO[C@H](c4cnn(C5CC5)c4)C3)nc2c(=O)n1C (single isomer, unassigned) [Example 26A]		10 to 100	75 to 110	
Cc1nc2c(-c3ccc(Cl)cc3F)nc(N3CCO[C@@H](c4cnn(C5CC5)c4)C3)nc2c(=O)n1C (single isomer, unassigned) [Example 26B]		1 to 10	75 to 110	
Cc1nc2c(-c3cc(F)c(F)cc3F)nc([C@@H]3CCO[C@H](c4cnn(C)c4)C3)nc2c(=O)n1C (single isomer, unassigned) [Example 38A]		100 to 1000	< 75	
Cc1nc2c(-c3ccc(C(F)(F)F)cc3F)nc([C@@H]3CCO[C@H](c4cnn(C)c4)C3)nc2c(=O)n1C (single isomer, unassigned) [Example 65]		10 to 100	75 to 110	
Cc1nc2c(-c3ccc(C(F)(F)F)cc3F)nc([C@H]3CCO[C@@H](c4cnn(C)c4)C3)nc2c(=O)n1C (single isomer, unassigned) [Example 66]		> 1000	75 to 110	
Cc1nc2c(-c3ccc(Cl)cc3F)nc([C@@H]3CCO[C@H](c4cnn(C)c4)C3)nc2c(=O)n1C (single isomer, unassigned) [Example 67]		100 to 1000	> 110	
Cc1nc2c(-c3ccc(Cl)cc3F)nc([C@H]3CCO[C@@H](c4cnn(C)c4)C3)nc2c(=O)n1C (single isomer, unassigned) [Example 68]		> 1000	75 to 110	

Results, then the compound that gave them:

Emax (maximal response relative to reference agonist example 1B (remaining examples))	EC50 [nM]	Emax [1] [%]	Emax [2] [%]	Compound
++ (75-110%)	10 to 100			6-((2R,4S)-2-(1-cyclopropyl-1H-pyrazol-4-yl)tetrahydro-2H-pyran-4-yl)-8-(2-fluoro-4-(trifluoromethyl)phenyl)-2,3-dimethylquinazolin-4 (3H)-one [Example 120B]
	100 to 1000	75 to 110		Cc1nc2c(-c3ccc(Cl)cc3F)nc([C@H]3CCO[C@@H](c4cnn(C5CC5)c4)C3)nc2c(=O)n1C (racemic) [Example 14, 8-(4-chloro-2-fluorophenyl)-6-((2R,4S)-2-(1-cyclopropyl-1H-pyrazol-4-yl)tetrahydro-2H-pyran-4-yl)-2,3-dimethylpyrimido[5,4-d]pyrimidin-4 (3H)-one]
	100 to 1000	75 to 110		Cc1ncc([C@H]2C[C@@H](c3nc(-c4ccc(Cl)cc4F)c4nc(C)n(C)c(=O)c4n3)CCO2)cn1 (racemic) [Example 37, 8-(4-chloro-2-fluorophenyl)-2,3-dimethyl-6-((2R,4S)-2-(2-methylpyrimidin-5-yl)tetrahydro-2H-pyran-4-yl)pyrimido[5,4-d]pyrimidin-4 (3H)-one]
	100 to 1000	< 75		Cc1nc2c(-c3ccc(F)cc3F)nc(N3CC(C)OC(c4cnn(C5CC5)c4)C3)nc2c(=O)n1C (racemic) [Example 177C, 6-(2-(1-cyclopropyl-1H-pyrazol-4-yl)-6-methylmorpholino)-8-(2,4-difluorophenyl)-2,3-dimethylpyrimido[5,4-d]pyrimidin-4 (3H)-one]
	10 to 100		> 110	Cc1nc2c(-c3ccc(Cl)cc3F)nc(N3CCO[C@@H](c4cnn(C)c4)C3)nc2c(=O)n1C (single isomer, unassigned) [Example 1B]
	10 to 100	75 to 110		Cc1cc([C@@H]2CN(c3nc(-c4ccc(C(F)(F)F)cc4F)c4nc(C)n(C)c(=O)c4n3)CCO2)ccn1 (single isomer, unassigned) [Example 21A]
	100 to 1000	75 to 110		Cc1cc([C@@H]2CN(c3nc(-c4ccc(C(F)(F)F)nc4)c4nc(C)n(C)c(=O)c4n3)CCO2)ccn1 (single isomer, unassigned) [Example 22A]
	10 to 100	< 75		Cc1nc2c(-c3ccc(C(F)(F)F)cc3F)nc(N3CCO[C@H](c4cnn(C)c4)C3)nc2c(=O)n1C (single isomer, unassigned) [Example 25A]
	10 to 100	< 75		Cc1nc2c(-c3cc(F)c(F)cc3F)nc(N3CCO[C@H](c4cnn(C)c4)C3)nc2c(=O)n1C (single isomer, unassigned) [Example 27A]
	10 to 100	75 to 110		Cc1nc2c(-c3cc(F)c(F)cc3F)nc(N3CCO[C@@H](c4cnn(C)c4)C3)nc2c(=O)n1C (single isomer, unassigned) [Example 27B]
	> 1000	75 to 110		Cc1nc2c(-c3ccc(C(F)(F)F)nc3)nc(N3CCO[C@H](c4cnn(C)c4)C3)nc2c(=O)n1C (single isomer, unassigned) [Example 28A]
	10 to 100	75 to 110		Cc1nc2c(-c3ccc(C(F)(F)F)nc3)nc(N3CCO[C@@H](c4cnn(C)c4)C3)nc2c(=O)n1C (single isomer, unassigned) [Example 28B]
